# Test results from patent US20160338966A1, “Multimicroparticulate pharmaceutical forms foe oral administration” (FLAMEL IRELAND LIMITED, priority 2006, published 2016).
# Test: behavior of agents D in water and in ethanol/water solution 40/60 v/v
# Format: physicochemical
# Text: Different compounds D are introduced into ajar containing either water (on the left in the Figures) or an ethanol/water solution in a ratio of 40/60 v/v (right jar in the Figures).
Substance,solubility in water and in ethanol/water,solubilization rate in water versus water/ethanol mixture
guar gum,soluble in water but not in the water/ethanol mixture,
hydroxypropyl methyl cellulose [hypromellose],,higher in water than in the water/ethanol mixture
